Results on 20 molecules are retold here after patent US20230107642A1 (Erasca, Inc., priority 2020, published 2023).

The experiment concerns the target T1, Cys12 of the KRAS 4B G12C protein (Homo sapiens, UniProt P01116, G12C).
T1 construct: This protein contained 188 amino acids in total, including an N-terminal 6-Histidine tag; made in house; host or cells: E. coli BL21
Nature of the experiment: In vitro covalent adduct formation (CAF) assay, LC-MS intact mass. The class given is binding. The settings on record: 10 uM compound, 60 min. The essentials:
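GDP-loaded (>95%) His-TEV-tagged KRAS 4B G12C (residues 1–169), 5 μM in TBS pH 7.4, incubated with 10 μM compound (4% DMSO) at 22° C for one hour. Intact-protein LC-MS gave free:adduct ratios, reported as percent protein modified; duplicate runs.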

Consider `C=CC(=O)N1[C@@H]2CC[C@H]1CN(c1nc(=O)n3c4c(c(-c5cc(Cl)c(F)cc5F)c(C(F)(F)F)cc14)SC[C@@H]3CN1CCN(CC)CC1)C2` [Example 1403, (3S)-7-((1R,5S)-8-acryloyl-3,8-diazabicyclo[3.2.1]octan-3-yl)-10-(5-chloro-2,4-difluorophenyl)-3-((4-ethylpiperazin-1-yl)methyl)-9-(trifluoromethyl)-2,3-dihydro-5H-[1,4]thiazino[2,3,4-ij]quinazolin-5-one], for which the “% CAF 10 uM @ 60 min” value came to 80.3%.

Take `C=CC(=O)N1[C@H](C)CN(c2nc(=O)n3c4c(c(-c5ccc(F)cc5)c(C(F)(F)F)cc24)SC[C@@H](COC)C3)C[C@@H]1C` [Example 1407, (R)-8-((3S,5R)-4-acryloyl-3,5-dimethylpiperazin-1-yl)-11-(4-fluorophenyl)-3-(methoxymethyl)-10-(trifluoromethyl)-3,4-dihydro-2H,6H-[1,4]thiazepino[2,3,4-ij]quinazolin-6-one]: the “% CAF 10 uM @ 60 min” value is recorded as 92.7%.

As to `C=CC(=O)N1[C@H](C)CN(c2nc(=O)n3c4c(c(-c5ccc(F)cc5)c(C(F)(F)F)cc24)SC[C@H](COC)C3)C[C@@H]1C` [Example 1408, (S)-8-((3S,5R)-4-acryloyl-3,5-dimethylpiperazin-1-yl)-11-(4-fluorophenyl)-3-(methoxymethyl)-10-(trifluoromethyl)-3,4-dihydro-2H,6H-[1,4]thiazepino[2,3,4-ij]quinazolin-6-one], the “% CAF 10 uM @ 60 min” value worked out at 83.7%.

With `C=CC(=O)N1[C@H](C)CN(c2nc(=O)n3c4c(c(-c5ccc(F)cc5)c(C(F)(F)F)cc24)SCC(COC)(COC)C3)C[C@@H]1C` [Example 1409, 8-((3S,5R)-4-acryloyl-3,5-dimethylpiperazin-1-yl)-11-(4-fluorophenyl)-3,3-bis(methoxymethyl)-10-(trifluoromethyl)-3,4-dihydro-[1,4]thiazepino[2,3,4-ij]quinazolin-6(2H)-one], the “% CAF 10 uM @ 60 min” value stood at 96.5%.

As for `C=CC(=O)N1[C@H](C)CN(c2nc(=O)n3c4c(c(-c5cc(Cl)c(F)cc5F)c(C(F)(F)F)cc24)SCC(COC)(COC)C3)C[C@@H]1C` [Example 1410, 8-((3S,5R)-4-acryloyl-3,5-dimethylpiperazin-1-yl)-11-(5-chloro-2,4-difluorophenyl)-3,3-bis(methoxymethyl)-10-(trifluoromethyl)-3,4-dihydro-2H,6H-[1,4]thiazepino[2,3,4-ij]quinazolin-6-one], the “% CAF 10 uM @ 60 min” value is 95.3%.

In the case of `[2H]C([2H])([2H])OC[C@H]1CSc2c(-c3ccc(F)cc3)c(C(F)(F)F)cc3c(N4C[C@@H](C)N(C(=O)C=C)[C@@H](C)C4)nc(=O)n1c23` [Example 1413, (S)-7-((3S,5R)-4-acryloyl-3,5-dimethylpiperazin-1-yl)-10-(4-fluorophenyl)-3-((methoxy-d3)methyl)-9-(trifluoromethyl)-2,3-dihydro-5H-[1,4]thiazino[2,3,4-ij]quinazolin-5-one], the “% CAF 10 uM @ 60 min” value is recorded as 95.1%.

Consider `C=CC(=O)N1[C@H](C)CN(c2nc(=O)n3c4c(c(-c5ccc(F)cc5F)c(C(F)(F)F)cc24)SC[C@@H]3COCC)C[C@@H]1C` [Example 1414, (3S)-7-((3S,5R)-4-acryloyl-3,5-dimethylpiperazin-1-yl)-10-(2,4-difluorophenyl)-3-(ethoxymethyl)-9-(trifluoromethyl)-2,3-dihydro-5H-[1,4]thiazino[2,3,4-ij]quinazolin-5-one], for which the “% CAF 10 uM @ 60 min” value is reported as 91.8%.

As for `C=CC(=O)N1[C@H](C)CN(c2nc(=O)n3c4c(c(-c5ccc(F)cc5)c(C(F)(F)F)cc24)SC[C@@H]3COCC)C[C@@H]1C` [Example 1415, (S)-7-((3S,5R)-4-acryloyl-3,5-dimethylpiperazin-1-yl)-3-(ethoxymethyl)-10-(4-fluorophenyl)-9-(trifluoromethyl)-2,3-dihydro-5H-[1,4]thiazino[2,3,4-ij]quinazolin-5-one], the “% CAF 10 uM @ 60 min” value turned out to be 90.1%.

Regarding `[2H]C([2H])([2H])OC[C@H]1CSc2c(-c3cc(Cl)c(F)cc3F)c(C(F)(F)F)cc3c(N4C[C@@H](C)N(C(=O)C=C)[C@@H](C)C4)nc(=O)n1c23` [Example 1417, (3S)-7-((3S,5R)-4-acryloyl-3,5-dimethylpiperazin-1-yl)-10-(5-chloro-2,4-difluorophenyl)-3-((methoxy-d3)methyl)-9-(trifluoromethyl)-2,3-dihydro-5H-[1,4]thiazino[2,3,4-ij]quinazolin-5-one], the “% CAF 10 uM @ 60 min” value was determined as 92.5%.

As to `[2H]C([2H])([2H])OC[C@H]1CSc2c(-c3ccc(F)cc3F)c(C(F)(F)F)cc3c(N4C[C@@H](C)N(C(=O)C=C)[C@@H](C)C4)nc(=O)n1c23` [Example 1418, (3S)-7-((3S,5R)-4-acryloyl-3,5-dimethylpiperazin-1-yl)-10-(2,4-difluorophenyl)-3-((methoxy-d3)methyl)-9-(trifluoromethyl)-2,3-dihydro-5H-[1,4]thiazino[2,3,4-ij]quinazolin-5-one], the “% CAF 10 uM @ 60 min” value was determined as 95.4%.

In the case of `C=CC(=O)N1[C@H](C)CN(c2nc(=O)n3c4c(c(-c5ccc(F)cc5)c(C(F)(F)F)cc24)SC[C@@H]3C)C[C@@H]1C` [Example 1419, (S)-7-((3S,5R)-4-acryloyl-3,5-dimethylpiperazin-1-yl)-10-(4-fluorophenyl)-3-methyl-9-(trifluoromethyl)-2H-[1,4]thiazino[2,3,4-ij]quinazolin-5(3H)-one], the “% CAF 10 uM @ 60 min” value came out at 95.7%.

With `C=CC(=O)N1[C@H](C)CN(c2nc(=O)n3c4c(c(-c5cc(Cl)c(F)cc5F)c(C(F)(F)F)cc24)SC[C@@H](N2CCCC2)C3)C[C@@H]1C` [Example 1422, (3S)-8-((3S,5R)-4-acryloyl-3,5-dimethylpiperazin-1-yl)-11-(5-chloro-2,4-difluorophenyl)-3-(pyrrolidin-1-yl)-10-(trifluoromethyl)-3,4-dihydro-2H,6H-[1,4]thiazepino[2,3,4-ij]quinazolin-6-one], the “% CAF 10 uM @ 60 min” value was found to be 94.1%.

With `C=CC(=O)N1C[C@H](C)N(c2nc(=O)n3c4c(c(-c5cc(C=O)c(F)cc5F)c(C(F)(F)F)cc24)SCC2(COC2)C3)C[C@H]1C` [Example 1425, 5-(8′-((2S,5R)-4-acryloyl-2,5-dimethylpiperazin-1-yl)-6′-oxo-10′-(trifluoromethyl)-2′H,4′H,6′H-spiro[oxetane-3,3′-[1,4]thiazepino[2,3,4-ij]quinazolin]-11′-yl)-2,4-difluorobenzaldehyde], the “% CAF 10 uM @ 60 min” value is recorded as 69.2%.

Take `C=CC(=O)N1C[C@H](C)N(c2nc(=O)n3c4c(c(-c5cc(C(OC)OC)c(F)cc5F)c(C(F)(F)F)cc24)SCC2(COC2)C3)C[C@H]1C` [Example 1426, 8′-((2S,5R)-4-acryloyl-2,5-dimethylpiperazin-1-yl)-11′-(5-(dimethoxymethyl)-2,4-difluorophenyl)-10′-(trifluoromethyl)-2′H,4′H,6′H-spiro[oxetane-3,3′-[1,4]thiazepino[2,3,4-ij]quinazolin]-6′-one]: the “% CAF 10 uM @ 60 min” value is 76%.

On to `C=CC(=O)N1[C@H](C)CN(c2nc(=O)n3c4c(c(-c5ccc(F)cc5F)c(C(F)(F)F)cc24)SC[C@@H]3C)C[C@@H]1C` [Example 1427, (3S)-7-((3S,5R)-4-acryloyl-3,5-dimethylpiperazin-1-yl)-10-(2,4-difluorophenyl)-3-methyl-9-(trifluoromethyl)-2,3-dihydro-5H-[1,4]thiazino[2,3,4-ij]quinazolin-5-one], for which the “% CAF 10 uM @ 60 min” value stood at 95%.

Regarding `C=CC(=O)N1[C@H](C)CN(c2nc(=O)n3c4c(c(-c5ccc(F)cc5)c(C(F)(F)F)cc24)SCC(CO)(CO)C3)C[C@@H]1C` [Example 1430, 8-((3S,5R)-4-acryloyl-3,5-dimethylpiperazin-1-yl)-11-(4-fluorophenyl)-3,3-bis(hydroxymethyl)-10-(trifluoromethyl)-3,4-dihydro-2H,6H-[1,4]thiazepino[2,3,4-ij]quinazolin-6-one], the “% CAF 10 uM @ 60 min” value was 93%.

Consider `C=CC(=O)N1C[C@H](C)N(c2nc(=O)n3c4c(c(-c5cc(Cl)c(F)cc5F)c(C(F)(F)F)cc24)SCC2(CCOCC2)C3)C[C@H]1C` [Example 1435, 8′-((2S,5R)-4-acryloyl-2,5-dimethylpiperazin-1-yl)-11′-(5-chloro-2,4-difluorophenyl)-10′-(trifluoromethyl)-2,3,5,6-tetrahydro-2′H,4′H,6′H-spiro[pyran-4,3′-[1,4]thiazepino[2,3,4-ij]quinazolin]-6′-one], for which the “% CAF 10 uM @ 60 min” value is recorded as 84%.

For `C=CC(=O)N1C[C@H](C)N(c2nc(=O)n3c4c(c(-c5cc(Br)c(F)cc5F)c(C(F)(F)F)cc24)SCC2(COC2)C3)C[C@H]1C` [Example 1436, 8′-((2S,5R)-4-acryloyl-2,5-dimethylpiperazin-1-yl)-11′-(5-bromo-2,4-difluorophenyl)-10′-(trifluoromethyl)-2′H,4′H,6′H-spiro[oxetane-3,3′-[1,4]thiazepino[2,3,4-ij]quinazolin]-6′-one], the “% CAF 10 uM @ 60 min” value amounted to 81%.

As for `C=CC(=O)N1[C@H](C)CN(c2nc(=O)n3c4c(c(-c5cc(Cl)c(F)cc5F)c(C(F)(F)F)cc24)SCC(CO)(CO)C3)C[C@@H]1C` [Example 1437, 8-((3S,5R)-4-acryloyl-3,5-dimethylpiperazin-1-yl)-11-(5-chloro-2,4-difluorophenyl)-3,3-bis(hydroxymethyl)-10-(trifluoromethyl)-3,4-dihydro-2H,6H-[1,4]thiazepino[2,3,4-ij]quinazolin-6-one], the “% CAF 10 uM @ 60 min” value is 87%.

On to `C=CC(=O)N1[C@H](C)CN(c2nc(=O)n3c4c(c(-c5ccc(F)cc5F)c(C(F)(F)F)cc24)SCC(CO)(CO)C3)C[C@@H]1C` [Example 1442, 8-((3S,5R)-4-acryloyl-3,5-dimethylpiperazin-1-yl)-11-(2,4-difluorophenyl)-3,3-bis(hydroxymethyl)-10-(trifluoromethyl)-3,4-dihydro-2H,6H-[1,4]thiazepino[2,3,4-ij]quinazolin-6-one], for which the “% CAF 10 uM @ 60 min” value is given as 93%.
